Assay results published in patent publication US4012385A, “Antibacterial quinoxaline 1,4-dioxides” (Pfizer Inc., priority 1975, dated 1977).
Values after ≈ are worked out from the molar mass of the structure shown.

Experiments:
Salmonella Choleraesuis [1] = details: mice, 25 mg./kg., multiple dosing, percentage of animals which survive
Description: The test compound is administered using a multiple dosing regimen at a dosage of 25 mg./kg., and using either the oral (PO) or the subcutaneous (SC) route. The inoculum of bacteria varies from one to about ten times the amount needed to kill 100% of the mice, under conditions of the test. At the end of the test, the activity of a compound is assessed by counting the number of survivors among the treated animals and expressing the activity of a compound as the percentage of animals which survive.

Salmonella Choleraesuis [2] = experiment: in vitro antibacterial activity (MIC), two-fold serial dilution in Brain-Heart Infusion broth; details: Salmonella enterica, read-out: MIC Sal. Choleraesuis
Description: (§1) The broth is inoculated with bacteria, and with the quinoxaline 1,4-dioxide or 1,3 -dihydrofuro[3,4-b]quinoxaline 4,9-dioxide, and then it is incubated overnight at 37 ° C., under anaerobic conditions. On the next day, the test is read visually. The minimum inhibitory concentration (MIC) of test compound is the lowest concentration which prevents turbidity, i.e. which prevents growth of the microorganism.

Escherichia coli = experiment: as above; details: read-out: MIC Esch coli
Description: as §1

Streptococcus pyogenes = experiment: as above; details: read-out: MIC Strep pyogenes
Description: as §1

Row | Structure (SMILES) | Percentage protection vs. Sal. Choleraesuis, PO (Salmonella Choleraesuis [1]) [%] | Percentage protection vs. Sal. Choleraesuis, SC (Salmonella Choleraesuis [1]) [%] | MIC (Salmonella Choleraesuis [2]) [µg/mL] | MIC (Escherichia coli) [µg/mL] | MIC (Streptococcus pyogenes) [µg/mL]
1 | CS(=O)(=O)Cc1c(C(=O)c2ccccc2)[n+]([O-])c2ccccc2[n+]1[O-] [2-Benzoyl-3-methylsulfonylmethylquinoxaline 1,4-Dioxide] | 60 | 30 | 25 (≈ 69.8 µM) | 25 (≈ 69.8 µM) | 12.5 (≈ 34.9 µM)
2 | CC(=O)OCc1c(C(=O)c2ccccc2)[n+]([O-])c2ccccc2[n+]1[O-] [2-Benzoyl-3-acetoxymethylquinoxaline 1,4-Dioxide] | 50 | 10 | 50 (≈ 148 µM) | 12.5 (≈ 36.9 µM) | 12.5 (≈ 36.9 µM)
3 | CC(=O)SCc1c(C(=O)c2ccccc2)[n+]([O-])c2ccccc2[n+]1[O-] [2-Benzoyl-3-acetylthiomethylquinoxaline 1,4-Dioxide] | 30 | 20 | > 200 | > 200 | > 200
4 | O=C(c1ccccc1)c1c(CO)[n+]([O-])c2ccccc2[n+]1[O-] [2-Benzoyl-3-hydroxymethylquinoxaline 1,4-Dioxide] | 80 | 60 | 6.25 (≈ 21.1 µM) | 1.56 (≈ 5.27 µM) | 0.78 (≈ 2.63 µM)
5 | COC1(c2ccccc2)OCc2c1[n+]([O-])c1ccccc1[n+]2[O-] (stereo not shown) [1-Methoxy-1-phenyl-1,3-dihydrofuro[3,4-b]quinoxaline 4,9-Dioxide] | 30 | 30 | 100 (≈ 322 µM) | 25 (≈ 80.6 µM) | 25 (≈ 80.6 µM)
